Measurements as given in the NIST ThermoML archive (doi:10.1016/j.jct.2018.01.015).
± gives the expanded uncertainty stated by the source.

Assay: xn = mol fraction of the nth substance listed
Conditions: Gas, rotating-body viscometer for gases

N#N [nitrogen] + O=C=O
Conditions | viscosity [mPa·s]
323.22 K, 200.9 kPa, x1 = 0.4996 | 0.0177 ± 4.2e-05
323.22 K, 398.6 kPa, x1 = 0.4996 | 0.01773 ± 4.2e-05
323.22 K, 399.4 kPa, x1 = 0.2479 | 0.01695 ± 5.5e-05
323.22 K, 598 kPa, x1 = 0.4996 | 0.01776 ± 4.2e-05
323.22 K, 605 kPa, x1 = 0.2479 | 0.01698 ± 5.5e-05
323.22 K, 798.9 kPa, x1 = 0.2479 | 0.01701 ± 5.5e-05
323.22 K, 804.9 kPa, x1 = 0.4996 | 0.0178 ± 4.2e-05
323.22 K, 996.4 kPa, x1 = 0.4996 | 0.01783 ± 4.2e-05
323.22 K, 1001.8 kPa, x1 = 0.2479 | 0.01705 ± 5.5e-05
323.22 K, 1196.8 kPa, x1 = 0.2479 | 0.0171 ± 5.5e-05
323.22 K, 1198.6 kPa, x1 = 0.4996 | 0.01787 ± 4.2e-05
323.26 K, 100.6 kPa, x1 = 1 | 0.0189 ± 3.1e-05
323.26 K, 101.5 kPa, x1 = 1 | 0.0189 ± 3.1e-05
323.26 K, 200.7 kPa, x1 = 1 | 0.0189 ± 3.1e-05
323.26 K, 400.4 kPa, x1 = 1 | 0.01893 ± 3.1e-05
323.26 K, 600.8 kPa, x1 = 1 | 0.01896 ± 3.1e-05
323.26 K, 800.2 kPa, x1 = 1 | 0.01896 ± 3.1e-05
323.26 K, 1000.6 kPa, x1 = 1 | 0.01901 ± 3.1e-05
323.26 K, 1000.9 kPa, x1 = 1 | 0.01901 ± 3.1e-05
323.27 K, 398.8 kPa, x1 = 1 | 0.01893 ± 3.1e-05
323.27 K, 1501.9 kPa, x1 = 1 | 0.01907 ± 3.1e-05
323.27 K, 1802.1 kPa, x1 = 1 | 0.01913 ± 3.1e-05
373.25 K, 103.3 kPa, x1 = 0.2479 | 0.01923 ± 5.5e-05
373.25 K, 107.8 kPa, x1 = 0.4996 | 0.01998 ± 4e-05
373.25 K, 200.1 kPa, x1 = 0.2479 | 0.01925 ± 5.5e-05
373.25 K, 200.7 kPa, x1 = 0.4996 | 0.02 ± 4e-05
373.25 K, 391.3 kPa, x1 = 0.4996 | 0.02002 ± 4e-05
373.25 K, 400.6 kPa, x1 = 0.2479 | 0.01928 ± 5.5e-05
373.25 K, 598.5 kPa, x1 = 0.4996 | 0.02005 ± 4e-05
373.25 K, 601.5 kPa, x1 = 0.2479 | 0.0193 ± 5.5e-05
373.25 K, 799.5 kPa, x1 = 0.4996 | 0.02008 ± 4e-05
373.25 K, 802.2 kPa, x1 = 0.2479 | 0.01933 ± 5.5e-05
373.25 K, 998.6 kPa, x1 = 0.4996 | 0.02011 ± 4e-05
373.25 K, 999.6 kPa, x1 = 0.2479 | 0.01937 ± 5.5e-05
373.25 K, 1498 kPa, x1 = 0.4996 | 0.0202 ± 4e-05
373.25 K, 1498.2 kPa, x1 = 0.2479 | 0.01947 ± 5.5e-05
373.29 K, 100.8 kPa, x1 = 1 | 0.02102 ± 3.1e-05
373.29 K, 201.1 kPa, x1 = 1 | 0.02104 ± 3.1e-05
373.29 K, 401 kPa, x1 = 1 | 0.02106 ± 3.1e-05
373.29 K, 601 kPa, x1 = 1 | 0.02107 ± 3.1e-05
373.29 K, 1000.3 kPa, x1 = 1 | 0.02111 ± 3.1e-05
373.29 K, 1500.6 kPa, x1 = 1 | 0.02118 ± 3.1e-05
373.29 K, 1807.2 kPa, x1 = 1 | 0.02122 ± 3.1e-05
373.57 K, 108.8 kPa, x1 = 0.7498 | 0.02061 ± 5.3e-05
373.57 K, 199.2 kPa, x1 = 0.7498 | 0.02064 ± 5.3e-05
373.57 K, 399.3 kPa, x1 = 0.7498 | 0.02065 ± 5.3e-05
373.57 K, 598.2 kPa, x1 = 0.7498 | 0.02068 ± 5.3e-05
373.57 K, 1002.4 kPa, x1 = 0.7498 | 0.02073 ± 5.3e-05
373.57 K, 1501.2 kPa, x1 = 0.7498 | 0.02081 ± 5.3e-05
373.57 K, 2041.9 kPa, x1 = 0.7498 | 0.02091 ± 5.3e-05
423.27 K, 108.9 kPa, x1 = 0.7498 | 0.02271 ± 5.9e-05
423.27 K, 200.4 kPa, x1 = 0.7498 | 0.02272 ± 5.9e-05
423.27 K, 398.7 kPa, x1 = 0.7498 | 0.02274 ± 5.9e-05
423.27 K, 600.7 kPa, x1 = 0.7498 | 0.02275 ± 5.9e-05
423.27 K, 1000.3 kPa, x1 = 0.7498 | 0.02281 ± 5.9e-05
423.27 K, 1500.1 kPa, x1 = 0.7498 | 0.02287 ± 5.9e-05
423.27 K, 2000 kPa, x1 = 0.7498 | 0.02293 ± 5.9e-05
423.28 K, 107.7 kPa, x1 = 0.2479 | 0.02144 ± 6.2e-05
423.28 K, 109.4 kPa, x1 = 0.4996 | 0.02216 ± 4.5e-05
423.28 K, 199.9 kPa, x1 = 0.4996 | 0.02216 ± 4.5e-05
423.28 K, 400 kPa, x1 = 0.4996 | 0.02219 ± 4.5e-05
423.28 K, 603 kPa, x1 = 0.4996 | 0.02221 ± 4.5e-05
423.28 K, 1001.7 kPa, x1 = 0.4996 | 0.02226 ± 4.5e-05
423.28 K, 1496.5 kPa, x1 = 0.4996 | 0.02233 ± 4.5e-05
423.28 K, 1995 kPa, x1 = 0.4996 | 0.02242 ± 4.5e-05
423.29 K, 201.4 kPa, x1 = 0.2479 | 0.02145 ± 6.2e-05
423.29 K, 405.1 kPa, x1 = 0.2479 | 0.02148 ± 6.2e-05
423.29 K, 601.1 kPa, x1 = 0.2479 | 0.02151 ± 6.2e-05
423.29 K, 1000.7 kPa, x1 = 0.2479 | 0.02156 ± 6.2e-05
423.29 K, 1495.1 kPa, x1 = 0.2479 | 0.02165 ± 6.2e-05
423.29 K, 1998.5 kPa, x1 = 0.2479 | 0.02175 ± 6.2e-05
423.33 K, 100.9 kPa, x1 = 1 | 0.02302 ± 3.4e-05
423.33 K, 200.9 kPa, x1 = 1 | 0.02303 ± 3.4e-05
423.33 K, 400.7 kPa, x1 = 1 | 0.02306 ± 3.4e-05
423.33 K, 600.6 kPa, x1 = 1 | 0.02308 ± 3.4e-05
423.33 K, 1000.5 kPa, x1 = 1 | 0.02311 ± 3.4e-05
423.33 K, 1500.2 kPa, x1 = 1 | 0.02316 ± 3.4e-05
423.33 K, 1799.4 kPa, x1 = 1 | 0.02319 ± 3.4e-05
473.31 K, 108.7 kPa, x1 = 0.7498 | 0.0247 ± 6.3e-05
473.31 K, 199 kPa, x1 = 0.7498 | 0.02471 ± 6.3e-05
473.31 K, 399 kPa, x1 = 0.7498 | 0.02472 ± 6.3e-05
473.31 K, 602.8 kPa, x1 = 0.7498 | 0.02474 ± 6.3e-05
473.31 K, 1003.8 kPa, x1 = 0.7498 | 0.02477 ± 6.3e-05
473.31 K, 1501.4 kPa, x1 = 0.7498 | 0.02482 ± 6.3e-05
473.31 K, 1996.7 kPa, x1 = 0.7498 | 0.02489 ± 6.3e-05
473.32 K, 108.1 kPa, x1 = 0.4996 | 0.02422 ± 4.8e-05
473.32 K, 203.7 kPa, x1 = 0.4996 | 0.02423 ± 4.8e-05
473.32 K, 400.1 kPa, x1 = 0.4996 | 0.02424 ± 4.8e-05
473.32 K, 602.4 kPa, x1 = 0.4996 | 0.02427 ± 4.8e-05
473.32 K, 1006.2 kPa, x1 = 0.4996 | 0.02431 ± 4.8e-05
473.32 K, 1503 kPa, x1 = 0.4996 | 0.02437 ± 4.8e-05
473.32 K, 1991.9 kPa, x1 = 0.4996 | 0.02444 ± 4.8e-05
473.34 K, 109.3 kPa, x1 = 0.2479 | 0.02355 ± 6.6e-05
473.34 K, 203.1 kPa, x1 = 0.2479 | 0.02356 ± 6.6e-05
473.34 K, 395.8 kPa, x1 = 0.2479 | 0.02358 ± 6.6e-05
473.34 K, 597.3 kPa, x1 = 0.2479 | 0.02359 ± 6.6e-05
473.34 K, 1000.4 kPa, x1 = 0.2479 | 0.02365 ± 6.6e-05
473.34 K, 1495.4 kPa, x1 = 0.2479 | 0.02373 ± 6.6e-05
473.34 K, 1998.5 kPa, x1 = 0.2479 | 0.02382 ± 6.6e-05
473.38 K, 100.7 kPa, x1 = 1 | 0.02494 ± 3.6e-05
473.38 K, 200.8 kPa, x1 = 1 | 0.02495 ± 3.6e-05
473.38 K, 398.5 kPa, x1 = 1 | 0.02496 ± 3.6e-05
473.38 K, 600.9 kPa, x1 = 1 | 0.02497 ± 3.6e-05
473.38 K, 1000.7 kPa, x1 = 1 | 0.02499 ± 3.6e-05
473.38 K, 1500.6 kPa, x1 = 1 | 0.02503 ± 3.6e-05
473.38 K, 1799.3 kPa, x1 = 1 | 0.02505 ± 3.6e-05
